Measured values taken from US10752609B2, “GSK-3 inhibitors” (priority 2016, dated 2020).
Like-named read-outs stand apart in the source and are kept apart here.

How the values were obtained:
GSK3β = GSK3β (Homo sapiens, UniProt P49841); assay: GSK3β kinase assay (Caliper LabChip3000 mobility shift, fluoresceinated peptide substrate); format: biochemical
pTau = pTau assay (no method described); format: cell-based
GSK3α = GSK3α (Homo sapiens, UniProt P49840); assay: GSK3α kinase assay (Caliper LabChip3000 mobility shift, fluoresceinated peptide substrate)
Experimental: The kinase assay was performed in V-bottom 384-well plates. […] The reaction was incubated at room temperature for 20 hours and terminated by adding 45 μl of 35 mM EDTA to each sample. The reaction mixture was analyzed on the Caliper LabChip3000 (Caliper, Hopkinton, Mass.) by electrophoretic separation of the unphosphorylated substrate and phosphorylated product. […] Compounds were dissolved at 10 mM in dimethylsulfoxide (DMSO) and evaluated at eleven concentrations. IC50 values were derived by non-linear regression analysis.

[1] = 250 pM enzyme, 20 uM ATP, 1.5 uM peptide, 20 hours room temperature, first value of cell GSK3β/GSK3α, read-out: GSK3β (nM), IC50

Sequence of GSK3α (P49840 whole entry, species assumed): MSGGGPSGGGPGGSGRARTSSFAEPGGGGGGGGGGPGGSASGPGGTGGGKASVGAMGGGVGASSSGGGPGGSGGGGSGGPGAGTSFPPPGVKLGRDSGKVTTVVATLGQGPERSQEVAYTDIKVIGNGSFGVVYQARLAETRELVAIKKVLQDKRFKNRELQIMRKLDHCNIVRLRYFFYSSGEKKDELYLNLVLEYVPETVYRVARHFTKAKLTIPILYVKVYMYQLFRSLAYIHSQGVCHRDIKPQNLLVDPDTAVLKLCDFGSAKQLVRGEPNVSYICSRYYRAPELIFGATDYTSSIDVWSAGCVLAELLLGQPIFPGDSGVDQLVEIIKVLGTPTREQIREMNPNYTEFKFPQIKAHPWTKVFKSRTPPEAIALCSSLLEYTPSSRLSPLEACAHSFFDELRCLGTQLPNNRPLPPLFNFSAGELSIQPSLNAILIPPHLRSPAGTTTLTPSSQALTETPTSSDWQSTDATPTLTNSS
Sequence of GSK3β (P49841 whole entry, species assumed): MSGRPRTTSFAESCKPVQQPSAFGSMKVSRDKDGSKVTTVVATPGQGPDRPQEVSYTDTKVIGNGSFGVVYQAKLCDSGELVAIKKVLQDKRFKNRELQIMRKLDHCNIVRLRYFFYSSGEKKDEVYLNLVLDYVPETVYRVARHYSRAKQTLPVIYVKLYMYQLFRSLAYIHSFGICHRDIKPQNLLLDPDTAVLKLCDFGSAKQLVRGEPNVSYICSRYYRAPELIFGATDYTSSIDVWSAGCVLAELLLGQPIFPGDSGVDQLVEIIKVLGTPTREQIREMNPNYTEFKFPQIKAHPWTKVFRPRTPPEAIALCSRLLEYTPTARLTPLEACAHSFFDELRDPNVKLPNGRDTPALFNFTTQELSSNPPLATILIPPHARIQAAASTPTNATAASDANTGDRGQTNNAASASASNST

Compound | IC50 (GSK3β; [1]) | IC50 (pTau) | IC50 (GSK3α) | IC50 (GSK3β)
O=C(Nc1cnccc1-c1ccccc1)c1ccnc(Nc2ccc(F)nc2)n1 [Example 86, 2-((6-Fluoropyridin-3-yl)amino)-N-(4-phenylpyridin-3-yl)pyrimidine-4-carboxamide] | 0.8 nM | 68 nM | 0.4 nM | –
O=C(Nc1cnccc1OCC(F)(F)F)c1ccnc(Nc2ccc(F)nc2)n1 [Example 84, 2-((6-Fluoropyridin-3-yl)amino)-N-(4-(2,2,2-trifluoroethoxy)pyridin-3-yl)pyrimidine-4-carboxamide] | 0.24 nM | 4.8 nM | 0.11 nM | –
COc1ccc(Nc2nccc(C(=O)Nc3cnccc3OCC(F)(F)F)n2)cc1 [Example 52, 2-((4-Methoxyphenyl)amino)-N-(4-(2,2,2-trifluoroethoxy)pyridin-3-yl)pyrimidine-4-carboxamide] | 0.07 nM | 6 nM | 0.06 nM | –
O=C(Nc1cnccc1-c1ccccc1)c1ccnc(Nc2ccc(-n3ccnc3)cc2)n1 [Example 16, 2-((4-(1H-Imidazol-1-yl)phenyl)amino)-N-(4-phenylpyridin-3-yl)pyrimidine-4-carboxamide] | 54 nM | 5700 nM | 36 nM | –
O=C(Nc1cnccc1-c1ccc(F)cc1F)c1ccnc(Nc2cccnn2)n1 [Example 164, N-(4-(2,4-Difluorophenyl)pyridin-3-yl)-2-(pyridazin-3-ylamino)pyrimidine-4-carboxamide] | 1500 nM | 10000 nM | 780 nM | –
O=C(Nc1cnccc1-c1ccc(F)cc1F)c1ccnc(Nc2ccc(F)cc2F)n1 [Example 155] | 1.5 nM | 10000 nM | 0.97 nM | –
O=C(Nc1cnccc1OCC(F)(F)F)c1ccnc(NC2CCC2)n1 [Example 119, 2-(Cyclobutylamino)-N-(4-(2,2,2-trifluoroethoxy)pyridin-3-yl)pyrimidine-4-carboxamide] | 0.34 nM | 20 nM | – | –
O=C(Nc1cncnc1)c1ccnc(Nc2cccc(-c3ccc(Cl)cc3)c2)n1 [Example 193, 2-((4′-Chloro-[1,1′-biphenyl]-3-yl)amino)-N-(pyrimidin-5-yl)pyrimidine-4-carboxamide] | 3.4 nM | 620 nM | 1.8 nM | –
O=C(Nc1cnccc1OCC(F)(F)F)c1ccnc(Nc2ccc(OC(F)F)nc2)n1 [Example 63, 2-((6-(Difluoromethoxy)pyridin-3-yl)amino)-N-(4-(2,2,2-trifluoroethoxy)pyridin-3-yl)pyrimidine-4-carboxamide] | 0.18 nM | 3 nM | 0.13 nM | –
O=C(Nc1cnccc1OCC(F)(F)F)c1ccnc(Nc2ccc3cnccc3c2)n1 [Example 106, 2-(Isoquinolin-6-ylamino)-N-(4-(2,2,2-trifluoroethoxy)pyridin-3-yl)pyrimidine-4-carboxamide] | 0.11 nM | 1.9 nM | 0.09 nM | –
CCOc1ccc(Nc2nccc(C(=O)Nc3cnccc3OCC(F)(F)F)n2)cc1 [Example 53, 2-((4-Ethoxyphenyl)amino)-N-(4-(2,2,2-trifluoroethoxy)pyridin-3-yl)pyrimidine-4-carboxamide] | 0.35 nM | 10 nM | 0.22 nM | –
O=C(Nc1cnccc1-c1ccc(F)cc1)c1ccnc(Nc2ccc(OC(F)(F)F)cc2)n1 [Example 48, N-(4-(4-Fluorophenyl)pyridin-3-yl)-2-((4-(trifluoromethoxy)phenyl)amino)pyrimidine-4-carboxamide] | 1.5 nM | 170 nM | 1.3 nM | –
O=C(Nc1cnc(F)cc1N1CCC(F)(F)CC1)c1ccnc(Nc2ccc(C(F)(F)F)cc2)n1 [Example 183, N-(4-(4,4-Difluoropiperidin-1-yl)-6-fluoropyridin-3-yl)-2-((4-(trifluoromethyl)phenyl)amino)pyrimidine-4-carboxamide] | 2.9 nM | – | 3.1 nM | –
O=C(Nc1cncnc1N1CCOCC1)c1ccnc(NCC2CC2)n1 [Example 205, 2-((Cyclopropylmethyl)amino)-N-(4-morpholinopyrimidin-5-yl)pyrimidine-4-carboxamide] | – | 1800 nM | 22 nM | 19 nM
N#Cc1ccc(Nc2nccc(C(=O)Nc3cnccc3-c3ccccc3)n2)c(F)c1 [Example 22, 2-((4-Cyano-2-fluorophenyl)amino)-N-(4-phenylpyridin-3-yl)pyrimidine-4-carboxamide] | 0.31 nM | – | 0.21 nM | –
O=C(Nc1cnccc1OCC(F)(F)F)c1ccnc(Nc2ccccc2)n1 [Example 51, 2-(Phenylamino)-N-(4-(2,2,2-trifluoroethoxy)pyridin-3-yl)pyrimidine-4-carboxamide] | 0.25 nM | 13 nM | 0.16 nM | –
O=C(Nc1cnccc1OCC(F)(F)F)c1ccnc(Nc2ccc3cccnc3c2)n1 [Example 107, 2-(Quinolin-7-ylamino)-N-(4-(2,2,2-trifluoroethoxy)pyridin-3-yl)pyrimidine-4-carboxamide] | 0.17 nM | 9.4 nM | 0.24 nM | –
O=C(Nc1cnccc1-c1ccccc1)c1ccnc(Nc2cnns2)n1 [Example 101, 2-((1,2,3-Thiadiazol-5-yl)amino)-N-(4-phenylpyridin-3-yl)pyrimidine-4-carboxamide] | 100 nM | 9000 nM | 42 nM | –

Compound | IC50 (GSK3β; [1]) | IC50 (pTau) | IC50 (GSK3α) | IC50 (GSK3β)
O=C(Nc1cnccc1CN1CCCC1)c1ccnc(Nc2ccc(OC(F)F)nc2)n1 [Example 81, 2-((6-(Difluoromethoxy)pyridin-3-yl)amino)-N-(4-(pyrrolidin-1-ylmethyl)pyridin-3-yl)pyrimidine-4-carboxamide] | 9.8 nM | 520 nM | 6.6 nM | –
C[S+]([O-])c1ccc(Nc2nccc(C(=O)Nc3cnccc3-c3ccccc3)n2)cc1 (stereo not shown) [Example 14, 2-((4-(Methylsulfinyl)phenyl)amino)-N-(4-phenylpyridin-3-yl)pyrimidine-4-carboxamide] | 0.39 nM | 14 nM | 0.18 nM | –
O=C(Nc1cnccc1-c1ccc(F)cc1)c1ccnc(NC2CC2)n1 [Example 153, 2-(Cyclopropylamino)-N-(4-(4-fluorophenyl)pyridin-3-yl)pyrimidine-4-carboxamide] | 0.82 nM | 55 nM | 0.65 nM | –
COc1ccc(Nc2nccc(C(=O)Nc3cnccc3-c3ccccc3)n2)cc1 [Example 6, 2-((4-Methoxyphenyl)amino)-N-(4-phenylpyridin-3-yl)pyrimidine-4-carboxamide] | 0.64 nM | 51 nM | 0.4 nM | –
O=C(Nc1cnccc1OCC(F)(F)F)c1ccnc(Nc2cccc3ccccc23)n1 [Example 112, 2-(Naphthalen-1-ylamino)-N-(4-(2,2,2-trifluoroethoxy)pyridin-3-yl)pyrimidine-4-carboxamide] | 3.6 nM | – | 2.1 nM | –
O=C(Nc1cnccc1OCC(F)(F)F)c1ccnc(Nc2ccc(OC(F)F)cc2)n1 [Example 60, 2-((4-(Difluoromethoxy)phenyl)amino)-N-(4-(2,2,2-trifluoroethoxy)pyridin-3-yl)pyrimidine-4-carboxamide] | – | 5.5 nM | – | –
O=C(Nc1cnccc1-c1ccc(F)cc1)c1ccnc(Nc2ccccn2)n1 [Example 161, N-(4-(4-Fluorophenyl)pyridin-3-yl)-2-(pyridin-2-ylamino)pyrimidine-4-carboxamide] | 22 nM | – | 20 nM | –
O=C(Nc1cnc(F)cc1OCC(F)(F)F)c1ccnc(NC2CCC2)n1 [Example 127, 2-(Cyclobutylamino)-N-(6-fluoro-4-(2,2,2-trifluoroethoxy)pyridin-3-yl)pyrimidine-4-carboxamide] | 1.2 nM | 140 nM | – | –
O=C(Nc1cncnc1OCC(F)(F)F)c1ccnc(Nc2ccc(OC(F)F)cc2)n1 [Example 70, 2-((4-(Difluoromethoxy)phenyl)amino)-N-(4-(2,2,2-trifluoroethoxy)pyrimidin-5-yl)pyrimidine-4-carboxamide] | – | 52 nM | – | –
CC(Nc1nccc(C(=O)Nc2cnccc2OCC(F)(F)F)n1)c1cc(F)cc(F)c1 (stereo not shown) [Example 146, 2-((1-(3,5-Difluorophenyl)ethyl)amino)-N-(4-(2,2,2-trifluoroethoxy)pyridin-3-yl)pyrimidine-4-carboxamide] | – | 320 nM | – | –
O=C(Nc1cncnc1)c1ccnc(Nc2cccc(-c3ccccc3)n2)n1 [Example 195, 2-((6-Phenylpyridin-2-yl)amino)-N-(pyrimidin-5-yl)pyrimidine-4-carboxamide] | 8.9 nM | – | 7.2 nM | –
CC(C)Nc1nccc(C(=O)Nc2cnccc2-c2ccc(F)cc2)n1 [Example 152, N-(4-(4-Fluorophenyl)pyridin-3-yl)-2-(isopropylamino)pyrimidine-4-carboxamide] | 0.71 nM | 62 nM | – | –
O=C(Nc1cnccc1OCC(F)(F)F)c1ccnc(Nc2cnn(-c3cc(F)ccc3F)c2)n1 [Example 108, 2-((1-(2,5-Difluorophenyl)-1H-pyrazol-4-yl)amino)-N-(4-(2,2,2-trifluoroethoxy)pyridin-3-yl)pyrimidine-4-carboxamide] | 0.24 nM | – | 0.17 nM | –
O=C(Nc1cnccc1OCC(F)(F)F)c1ccnc(Nc2ccc3ccccc3c2)n1 [Example 115, 2-(Naphthalen-2-ylamino)-N-(4-(2,2,2-trifluoroethoxy)pyridin-3-yl)pyrimidine-4-carboxamide] | – | 23 nM | – | –
Cc1ccc(NC(=O)c2ccnc(N)n2)cn1 [Example 1, 2-Amino-N-(6-methylpyridin-3-yl)pyrimidine-4-carboxamide] | 57 nM | 10000 nM | – | –
CC(C)Nc1nccc(C(=O)Nc2cnc(F)cc2OCC(F)(F)F)n1 [Example 136, N-(6-Fluoro-4-(2,2,2-trifluoroethoxy)pyridin-3-yl)-2-(isopropylamino)pyrimidine-4-carboxamide] | 3.7 nM | 320 nM | – | –
CC(C)(C)C1CCC(Nc2nccc(C(=O)Nc3cnccc3-c3ccccc3F)n2)CC1 (stereo not shown) [Example 160, 2-((4-(tert-Butyl)cyclohexyl)amino)-N-(4-(2-fluorophenyl)pyridin-3-yl)pyrimidine-4-carboxamide] | 15 nM | 4900 nM | – | –
